Experimental data from patent US20260183225A1, “PHARMACEUTICAL COMPOSITION FOR TOPICAL ADMINISTRATION COMPRISING A VOLATILE ANAESTHETIC” (LABORATORIOS GEBRO PHARMA, S.A., priority 2022, published 2026).

How the values were obtained:
A delta nerve fibres = test: isolated nerve fibre model (electrophysiology of A delta fibres)
Protocol: In a first step, an isolated nerve fibre model was used and the effect of a 25% dilution (nutrient solution) of LGP10-16 on the different electrophysiological variables of the A delta nerve fibres was evaluated. The stimulated fibres from the A delta type correspond to nociceptive sensory fibres. 250 μl of LGP10-16 and 750 μl of nutrient solution were used in this test.

mouse vas deferens = mouse vas deferens preparation, inhibition of contractile activity
Protocol: In a second step, the effect of different concentrations of LGP10-16 on preparations of mouse vas deferens and guinea-pig ileum LMMP was studied.
After adding a concentration of the drug to the organ bath, it is left for 9 minutes to test its effect, after which the preparation is washed. At the end of the first concentration-response curve (left bars), it is left for 90 mins and the second curve is created (right bars).

guinea-pig ileum LMMP = guinea-pig ileum LMMP preparation, inhibition of contractile activity
Source text: In a second step, the effect of different concentrations of LGP10-16 on preparations of mouse vas deferens and guinea-pig ileum LMMP was studied. […] In the case of this preparation, after washing, the curve has the same appearance, and the LGP10-16 activity is the same in both curves. To further investigate these differences, the battery of guinea-pig ileum experiments was repeated, this time without washing between the two curves, to see if the effect changed in any way. […] This is a clear synergic effect, as a result of the continued presence of LGP10-16 in the bath.

[1] = system: sciatic nerve ligation or chronic constriction injury (CCI) model; test: von Frey filament test (mechanical allodynia), CCI model, subcutaneous injection; assay type: in vivo, rat
Protocol: (§1) Male Wistar rats with a body weight between 250 and 300 g were kept in standard laboratory conditions (12 h light/dark cycles, temperature 21° C.). Four groups were formed and treated once a day with a composition comprising an active ingredient: • Group 1 was administered 10% of LGP10-16. • Group 2 was administered 25% of LGP10-16. • Group 3 was administered 100% of LGP10-16. • A control group 4 was administered saline solution. Each group consisted of 15 rats.
The sciatic nerve ligation or chronic constriction injury (CCI) model for as described by Bennett and Xie was used. The sciatic nerve ligation model generates a peripheral nerve injury that causes the appearance of mechanical and thermal hyperalgesia, mechanical allodynia and sometimes signs of spontaneous pain can be observed, by the spontaneous 5 elevation of the paw. All these symptoms appear one week after nerve ligation and can last more than two months. The added value of the model is that each animal can be its own control, since the contralateral paw, not being injured, reflects normal values. […]

[2] = system: sciatic nerve ligation or chronic constriction injury (CCI) model; test: rodent pincher test (mechanical hyperalgesia), CCI model, subcutaneous injection; assay type: in vivo, rat; settings: s.c. once a day; 10%, 25% and 100% LGP10-16
Protocol: as §1
The sciatic nerve ligation or chronic constriction injury (CCI) model for as described by Bennett and Xie was used. The sciatic nerve ligation model generates a peripheral nerve injury that causes the appearance of mechanical and thermal hyperalgesia, mechanical allodynia and sometimes signs of spontaneous pain can be observed, by the spontaneous 5 elevation of the paw. All these symptoms appear one week after nerve ligation and can last more than two months. The added value of the model is that each animal can be its own control, since the contralateral paw, not being injured, reflects normal values.
Mechanical hyperalgesia was tested in the rodent pincher test. The rodent pincher algometer allows calibrated forceps to induce quantifiable mechanical stimulation in the animal. The pressure is applied in the “inter-digital” region. […]

[3] = system: sciatic nerve ligation or chronic constriction injury (CCI) model; test: conditioned place preference (CPP) test, spontaneous pain, CCI model; assay type: in vivo, rat; settings: LGP10-16 25%; day 14 and day 21
Source text: The conditioned place preference (CPP) test assesses emotional responses; it is based on the evaluation of an associated learning behaviour in response to a new aversive environment. The CPP apparatus (70×30×30 cm) is divided into 3 compartments: two test compartments of identical dimensions and a third one considered as a neutral zone, which is narrower. The two test compartments have different visual and tactile characteristics (colour and texture of the walls and floor), so that the animal can differentiate them well and can be isolated by movable doors, so that communication between the three compartments can be allowed or blocked. On the pre-conditioning day, the animal was allowed to roam freely in the three compartments for 30 min, and the time spent in each compartment was measured ([…] that spend more than 60% in one compartment were excluded).
On conditioning days, animals were administered the drug and confined for 15 min in one of the test compartments (always in the same compartment) in order to associate the drug administration to that area. This conditioning procedure was repeated for each administration of the drug. […] The CPP value is expressed as the difference between the […]. […]

Male Wistar rats = test: healing and local tolerability after subcutaneous injection in CCI rats; assay type: in vivo, rat
Protocol: as §1

[4] = maximum concentration 25%, second curve

Question: How did the “reversibility of the effect” value (A delta nerve fibres; 25% dilution) turn out when `FCOC(C(F)(F)F)C(F)(F)F` [LGP10-16, Sevoflurane] was run?
Answer: The value was “reversible”.

Question: What about the “effect on nerve fibre firing capacity” value (A delta nerve fibres; 25% dilution in nutrient solution, increasing pressure stimulus) of the same molecule?
Answer: The value was “inhibition of the nerve fibre firing capacity”.

Question: And the “duration of the effect after a single application” value (A delta nerve fibres; 25% dilution, maintained after washing the fibre)?
Answer: The value was “up to 90 minutes”.

Question: What about the “effect level reached with a 25% solution” value (A delta nerve fibres; 25% solution) of the same molecule?
Answer: Its value is “maximum effect was reached”.

Question: And the “recovery of contractile capacity after washing after the first curve” value (mouse vas deferens; 25%, washed after first curve)?
Answer: Its value is “around 75%”.

Question: What about the Emax (mouse vas deferens; Mus musculus, 25%, washed after second curve, read-out: contractile activity after washing after the second curve, of maximum response) of the same molecule?
Answer: The Emax was 50%.

Question: What about the “persistence of the effect after washing” value (mouse vas deferens; after changing the nutrient solution) of the same molecule?
Answer: Its value is “maintained even 90 minutes after washing the preparation”.

Question: And the “inhibition of the contractile response” value (mouse vas deferens; concentrations from 1% to 25% added to the bath, 9 minutes)?
Answer: The value was “concentration-dependent inhibition”.

Question: And the “inhibition at the end of the first curve” value (mouse vas deferens; maximum concentration 25%)?
Answer: The value was 55%.

Question: And the “inhibition at the end of the second curve” value (mouse vas deferens; [4])?
Answer: The value was 85%.

Question: And the “effect when the preparation was not washed between the two curves” value (guinea-pig ileum LMMP; 1% to 25%, without washing, more inhibitory at intermediate doses)?
Answer: Its value is “somewhat greater”.

Question: What about the “recovery of contractile capacity after washing after the first curve” value (guinea-pig ileum LMMP; 25%, washed after first curve) of the same molecule?
Answer: The value was 100%.

Question: And the “recovery of function after washing after the second curve” value (guinea-pig ileum LMMP; 25%, washed after second curve)?
Answer: The value was 100%.

Question: What about the “inhibition of functional activity” value (guinea-pig ileum LMMP; concentration of 10% and 25%) of the same molecule?
Answer: The value was “complete (and reversible) inhibition”.

Question: And the “inhibition at the end of the first curve” value (guinea-pig ileum LMMP; increasing concentrations 1% to 25%, maximum 25%)?
Answer: The value was 100%.

Question: What about the “inhibition at the end of the second curve” value (guinea-pig ileum LMMP; [4]) of the same molecule?
Answer: The value was 100%.

Question: What about the “difference with respect to the control (von Frey)” value ([1]; from the first run at day 7, all doses (10%, 25%, 100%)) of the same molecule?
Answer: Its value is “statistically significant differences”.

Question: And the “antiallodynic effect (von Frey)” value ([1]; s.c. once a day, 10%, 25% and 100% LGP10-16)?
Answer: Its value is “dose- and time-dependent antiallodynic effect”.

Question: What about the “antihyperalgesic effect (rodent pincher)” value [2] of the same molecule?
Answer: Its value is “dose and time-dependent”.

Question: What about the “time spent in the compartment associated with drug administration (CPP)” value [3] of the same molecule?
Answer: Its value is “spent more time in the room associated with drug administration”.

Question: And the effect on healing (Male Wistar rats; concentrations of 10% and 25%, s.c.)?
Answer: Its effect on healing is “not negatively affected”.

Question: What about the local adverse findings (Male Wistar rats; group 3, 100% LGP10-16, s.c.) of the same molecule?
Answer: Its local adverse findings is “skin irritation and blistering”.

Question: What about the “side effects in animal models” value (Male Wistar rats; summary statement) of the same molecule?
Answer: Its value is “no relevant side effects”.
